Assay results as given in US11874281B2, “Assays for detecting modified compounds” (Enzo Life Sciences, Inc., priority 2010, dated 2024).

Target: human sphingosine kinase 1 (hSK1) (Homo sapiens, UniProt Q9NYA1)
Assay: sphingosine kinase 1 assay with fluoresceinated sphingosine, barium acetate/ethanol precipitation of fluoresceinated S1P, fluorescence readout
Type: biochemical
Settings: 100 μM inhibitor; 4 μM sphingosine fluoresceine; 500 μM ATP; 1 h at 37° C.
Description: Sphingosine is phosphorylated at the non-polar end by the enzymes sphingosine kinase 1 and sphingosine kinase 2, to form sphingosine-1-phosphate (S1P). S1P is an important signaling molecule, and serves in particular as a major regulator of vascular and immune systems. See, e.g., Lloyd-Evans et al., Nat. Med. 14:1247-1255 (2008); Ryu et al., EMBO J. 25:5840-5851 (2006); Maceyka et al., J. Lipid Res. 50:S272-S276 (2009); Peterson et al., Proc. Natl. Acad. Sci. USA 105:20764-20769; and U.S. Pat. No. 6,730,480. Thus, the detection of S1P and the sphingosine kinases is important for the understanding of the various systems that S1P influences. Current methods for separating sphingosine from S1P generally use chromatographic, electrophoretic or spectrometric methods. See, e.g., Bandhuvula et al., Biochem. Biophys. Res. Commun. 380:366-370 (2009); Lee et al., Anal. Chem. 80:1620-1627 (2008); Jin et al., Arch. Pharm. […]
The S1P formed by the enzyme was then precipitated in the reaction mix by the addition of 5 μl of 1 M barium acetate+300 μL of 100% ethanol, followed by 30 min incubation on ice. […] The eluted fluoresceinated S1P was quantified by measuring intensity of fluorescence. Preliminary studies established that the two wash steps were sufficient to remove essentially the entire quantity of unprecipitated sphingosine fluorescein. […]

Sequence of human sphingosine kinase 1 (hSK1) (Q9NYA1 whole entry): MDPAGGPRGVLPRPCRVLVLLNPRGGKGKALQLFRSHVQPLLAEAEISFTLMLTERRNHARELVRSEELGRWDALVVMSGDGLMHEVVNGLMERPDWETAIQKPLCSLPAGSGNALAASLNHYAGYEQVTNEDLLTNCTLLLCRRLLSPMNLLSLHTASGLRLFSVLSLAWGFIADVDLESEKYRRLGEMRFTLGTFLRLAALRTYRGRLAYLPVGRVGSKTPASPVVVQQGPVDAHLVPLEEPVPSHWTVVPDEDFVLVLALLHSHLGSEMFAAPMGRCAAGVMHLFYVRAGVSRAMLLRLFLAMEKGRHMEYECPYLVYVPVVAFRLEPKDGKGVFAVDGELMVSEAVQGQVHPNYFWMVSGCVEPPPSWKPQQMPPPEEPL

| Compound | inhibition of hSK1 (precipitation of the fluoresceinated product, FIG. 6) |
| --- | --- |
| CCCCCCCCCCCCC/C=C/[C@@H](O)[C@@H](N)CO [D/L sphingosine] | caused less precipitation of the fluoresceinated product |
| CCCCCCCCCCCCC/C=C/[C@@H](O)[C@H](CO)N(C)C [DMS, dimethylsphingosine] | caused less precipitation of the fluoresceinated product |
